Laboratory results taken from patent publication US8889854B2, “C-17 bicyclic amines of triterpenoids with HIV maturation inhibitory activity” (priority 2012, dated 2014).

Tested on: recombinant NL4-3 virus (Renilla luciferase in nef, Gag P373S; NLRluc)
Test: HIV Cell Culture Assay (luciferase reporter virus in MT-2 cells)
Type: cell-based
Settings: Renilla, NL43, MT-2 cells infected for 4-5 days with NLRluc recombinants, luciferase activity
Protocol: MT-2 cells and 293T cells were obtained from the NIH AIDS Research and Reference Reagent Program. MT-2 cells were propagated in RPMI 1640 media supplemented with 10% heat inactivated fetal bovine serum, […]. The 293T cells were propagated in DMEM media supplemented with 10% heat inactivated fetal bovine serum (FBS), 100 units/mL penicillin G and 100 μg/mL streptomycin. The proviral DNA clone of NL4-3 was obtained from the NIH AIDS Research and Reference Reagent Program. A recombinant NL4-3 virus, in which a section of the nef gene from NL4-3 was replaced with the Renilla luciferase gene, was used as a reference virus. In addition, residue Gag P373 was converted to P373S. Briefly, the recombinant virus was prepared by transfection of the altered proviral clone of NL4-3. Transfections were performed in 293T cells using LipofectAMINE PLUS from Invitrogen (Carlsbad, Calif.), according to manufacturer's instruction. The virus was titered in MT-2 cells using luciferase enzyme activity as a marker. Luciferase was quantitated using the Dual Luciferase kit from Promega (Madison, Wis.), with modifications to the manufacturer's protocol. The diluted Passive Lysis solution was pre-mixed with the re-suspended Luciferase Assay Reagent and the re-suspended Stop & Glo Substrate (2:1:1 ratio). Fifty (50) μL of the mixture was added to each aspirated well on assay plates and luciferase activity was measured immediately on a Wallac TriLux (Perkin-Elmer). Antiviral activities of inhibitors toward the recombinant virus were quantified by measuring luciferase activity in cells infected for 4-5 days with NLRluc recombinants in the presence serial dilutions of the inhibitor. Table 1 is the key for the data in Table 2.

| SMILES | EC50 (reported as group A/B) [nM] | EC50 [nM] |
| --- | --- | --- |
| C=C(C)[C@@H]1CC[C@]2(NCCN3C[C@H]4C[C@@H]3CS4(=O)=O)CC[C@]3(C)[C@H](CC[C@@H]4[C@@]5(C)CC=C(c6ccc(C(=O)O)cc6)C(C)(C)[C@@H]5CC[C@]43C)[C@@H]12 [Example 18, 4-((1R,3aS,5aR,5bR,7aR,11aS,11bR,13aR,13bR)-3a-((2-((1R,4R)-2,2-dioxido-2-thia-5-azabicyclo[2.2.1]heptan-5-yl)ethyl)amino)-5a,5b,8,8,11a-pentamethyl-1-(prop-1-en-2-yl)-2,3,3a,4,5,5a,5b,6,7,7a,8,11,11a,11b,12,13,13a,13b-octadecahydro-1H-cyclopenta[a]chrysen-9-yl)benzoic acid] | < 100 |  |
| C=C(C)[C@@H]1CC[C@]2(NCCN3[C@@H]4CCC[C@H]3COC4)CC[C@]3(C)[C@H](CC[C@@H]4[C@@]5(C)CC=C(c6ccc(C(=O)O)cc6)C(C)(C)[C@@H]5CC[C@]43C)[C@@H]12 [Example A1, 4-((1R,3aS,5aR,5bR,7aR,11aS,11bR,13aR,13bR)-3a-((2-((1R,5S)-3-oxa-9-azabicyclo[3.3.1]nonan-9-yl)ethyl)amino)-5a,5b,8,8,11a-pentamethyl-1-(prop-1-en-2-yl)-2,3,3a,4,5,5a,5b,6,7,7a,8,11,11a,11b,12,13,13a,13b-octadecahydro-1H-cyclopenta[a]chrysen-9-yl)benzoic acid] |  | 30 |
| C=C(C)[C@@H]1CC[C@]2(NCCN3CC4CCC(C3)O4)CC[C@]3(C)[C@H](CC[C@@H]4[C@@]5(C)CC=C(c6ccc(C(=O)O)cc6)C(C)(C)[C@@H]5CC[C@]43C)[C@@H]12 [Example A2, 4-((1R,3aS,5aR,5bR,7aR,11aS,11bR,13aR,13bR)-3a-((2-(8-oxa-3-azabicyclo[3.2.1]octan-3-yl)ethyl)amino)-5a,5b,8,8,11a-pentamethyl-1-(prop-1-en-2-yl)-2,3,3a,4,5,5a,5b,6,7,7a,8,11,11a,11b,12,13,13a,13b-octadecahydro-1H-cyclopenta[a]chrysen-9-yl)benzoic acid] |  | 71 |
| C=C(C)[C@@H]1CC[C@]2(NCCN3C4COCC3COC4)CC[C@]3(C)[C@H](CC[C@@H]4[C@@]5(C)CC=C(c6ccc(C(=O)O)cc6)C(C)(C)[C@@H]5CC[C@]43C)[C@@H]12 [Example A3, 4-((1R,3aS,5aR,5bR,7aR,11aS,11bR,13aR,13bR)-3a-((2-((1R,5R)-3,7-dioxa-9-azabicyclo[3.3.1]nonan-9-yl)ethyl)amino)-5a,5b,8,8,11a-pentamethyl-1-(prop-1-en-2-yl)-2,3,3a,4,5,5a,5b,6,7,7a,8,11,11a,11b,12,13,13a,13b-octadecahydro-1H-cyclopenta[a]chrysen-9-yl)benzoic acid] |  | 83 |
| C=C(C)[C@@H]1CC[C@]2(NCCN3C4CCC3CC(C)(O)C4)CC[C@]3(C)[C@H](CC[C@@H]4[C@@]5(C)CC=C(c6ccc(C(=O)O)cc6)C(C)(C)[C@@H]5CC[C@]43C)[C@@H]12 (stereo partly drawn) [Example A4, 4-((1R,3aS,5aR,5bR,7aR,11aS,11bR,13aR,13bR)-3a-((2-((1R,3S,5S)-3-hydroxy-3-methyl-8-azabicyclo[3.2.1]octan-8-yl)ethyl)amino)-5a,5b,8,8,11a-pentamethyl-1-(prop-1-en-2-yl)-2,3,3a,4,5,5a,5b,6,7,7a,8,11,11a,11b,12,13,13a,13b-octadecahydro-1H-cyclopenta[a]chrysen-9-yl)benzoic acid] |  | 8.8 |
| C=C(C)[C@@H]1CC[C@]2(NCCN3CC4CC3CO4)CC[C@]3(C)[C@H](CC[C@@H]4[C@@]5(C)CC=C(C6=CCC(C(=O)O)CC6)C(C)(C)[C@@H]5CC[C@]43C)[C@@H]12 (stereo partly drawn) [Example B1, 4-((1R,3aS,5aR,5bR,7aR,11aS,11bR,13aR,13bR)-3a-((2-(2-oxa-5-azabicyclo[2.2.1]heptan-5-yl)ethyl)amino)-5a,5b,8,8,11a-pentamethyl-1-(prop-1-en-2-yl)-2,3,3a,4,5,5a,5b,6,7,7a,8,11,11a,11b,12,13,13a,13b-octadecahydro-1H-cyclopenta[a]chrysen-9-yl)cyclohex-3-enecarboxylic acid] | < 100 |  |
| C=C(C)[C@@H]1CC[C@]2(NCCN3C[C@@H]4C[C@H]3CS4(=O)=O)CC[C@]3(C)[C@H](CC[C@@H]4[C@@]5(C)CC=C(C6=CCC(C(=O)O)CC6)C(C)(C)[C@@H]5CC[C@]43C)[C@@H]12 (stereo partly drawn) [Example B2, 4-((1R,3aS,5aR,5bR,7aR,11aS,11bR,13aR,13bR)-3a-((2((1S,4S)-2,2-dioxido-2-thia-5-azabicyclo[2.2.1]heptan-5-yl)ethyl)amino)-5a,5b,8,8,11a-pentamethyl-1-(prop-1-en-2-yl)-2,3,3a,4,5,5a,5b,6,7,7a,8,11,11a,11b,12,13,13a,13b-octadecahydro-1H-cyclopenta[a]chrysen-9-yl)cyclohex-3-enecarboxylic acid] |  | 1.18 |
| C=C(C)[C@@H]1CC[C@]2(NCCN3CCC4(CC3)COC4)CC[C@]3(C)[C@H](CC[C@@H]4[C@@]5(C)CC=C(c6ccc(C(=O)O)cc6)C(C)(C)[C@@H]5CC[C@]43C)[C@@H]12 [Example B3] |  | 3.82 |
| C=C(C)[C@@H]1CC[C@]2(NCCN3C[C@@H]4C[C@H]3CS4(=O)=O)CC[C@]3(C)[C@H](CC[C@@H]4[C@@]5(C)CC=C(C6=CC[C@@H](C(=O)O)CC6)C(C)(C)[C@@H]5CC[C@]43C)[C@@H]12 [Example B8, (S)-4-((1R,3aS,5aR,5bR,7aR,11aS,11bR,13aR,13bR)-3a-((2-((1S,4S)-2,2-dioxido-2-thia-5-azabicyclo[2.2.1]heptan-5-yl)ethyl)amino)-5a,5b,8,8,11a-pentamethyl-1-(prop-1-en-2-yl)-2,3,3a,4,5,5a,5b,6,7,7a,8,11,11a,11b,12,13,13a,13b-octadecahydro-1H-cyclopenta[a]chrysen-9-yl)cyclohex-3-enecarboxylic acid] |  | 1.3 |
| C=C(C)[C@@H]1CC[C@]2(NCCN3C[C@@H]4C[C@H]3CO4)CC[C@]3(C)[C@H](CC[C@@H]4[C@@]5(C)CC=C(C6=CC[C@H](C(=O)O)CC6)C(C)(C)[C@@H]5CC[C@]43C)[C@@H]12 [Example B9, (R)-4-((1R,3aS,5aR,5bR,7aR,11aS,11bR,13aR,13bR)-3a-((2-((1S,4S)-2-oxa-5-azabicyclo[2.2.1]heptan-5-yl)ethyl)amino)-5a,5b,8,8,11a-pentamethyl-1-(prop-1-en-2-yl)-2,3,3a,4,5,5a,5b,6,7,7a,8,11,11a,11b,12,13,13a,13b-octadecahydro-1H-cyclopenta[a]chrysen-9-yl)cyclohex-3-enecarboxylic acid] |  | 1.69 |
| C=C(C)[C@@H]1CC[C@]2(NCCN3C[C@@H]4C[C@H]3CO4)CC[C@]3(C)[C@H](CC[C@@H]4[C@@]5(C)CC=C(C6=CC[C@@H](C(=O)O)CC6)C(C)(C)[C@@H]5CC[C@]43C)[C@@H]12 [Example B10, (S)-4-((1R,3 aS,5aR,5bR,7aR,11aS,11bR,13 aR,13bR)-3a-((2-((1S,4S)-2-oxa-5-azabicyclo[2.2.1]heptan-5-yl)ethyl)amino)-5a,5b,8,8,11a-pentamethyl-1-(prop-1-en-2-yl)-2,3,3a,4,5,5a,5b,6,7,7a,8,11,11a,11b,12,13,13a,13b-octadecahydro-1H-cyclopenta[a]chrysen-9-yl)cyclohex-3-enecarboxylic acid] | < 100 |  |
| C=C(C)[C@@H]1CC[C@]2(NCCN3C[C@@H]4C[C@H]3CS4(=O)=O)CC[C@]3(C)[C@H](CC[C@@H]4[C@@]5(C)CC=C(C6=CC[C@H](C(=O)O)CC6)C(C)(C)[C@@H]5CC[C@]43C)[C@@H]12 [Example B11, (R)-4-((1R,3aS,5aR,5bR,7aR,11aS,11bR,13aR,13bR)-3a-((2-((1S,4S)-2,2-dioxido-2-thia-5-azabicyclo[2.2.1]heptan-5-yl)ethyl)amino)-5a,5b,8,8,11a-pentamethyl-1-(prop-1-en-2-yl)-2,3,3a,4,5,5a,5b,6,7,7a,8,11,11a,11b,12,13,13a,13b-octadecahydro-1H-cyclopenta[a]chrysen-9-yl)cyclohex-3-enecarboxylic acid] | < 100 |  |
| C=C(C)[C@@H]1CC[C@]2(NCCN3C[C@@H]4C[C@H]3CS4(=O)=O)CC[C@]3(C)[C@H](CC[C@@H]4[C@@]5(C)CC[C@H](OC(=O)CC(C)(C)C(=O)O)C(C)(C)[C@@H]5CC[C@]43C)[C@@H]12 [Example B12, 4-(((1R,3aS,5aR,5bR,7aR,9S,11aR,11bR,13aR,13bR)-3a-((2-((1S,4S)-2,2-dioxido-2-thia-5-azabicyclo[2.2.1]heptan-5-yl)ethyl)amino)-5a,5b,8,8,11a-pentamethyl-1-(prop-1-en-2-yl)icosahydro-1H-cyclopenta[a]chrysen-9-yl)oxy)-2,2-dimethyl-4-oxobutanoic acid] | < 100 |  |
